According to patent publication US6413508B1, “Green leaf volatiles as synergists for insect pheromones” (The United States of America as represented by the …, priority 1988, dated 2002):

How the values were obtained:
[1] = tested on: Single Olfactory Cells Responsive to Volatiles Emanating from a Crushed Cotton Square; experiment: Single-cell electrophysiology: action potentials from single olfactory cells; format: cell-based, Anthonomus grandis
Text: Single-cell recording techniques are described in detail elswhere [Dickens, Mitt. Schweiz. Entomol. Ges. 52: 203 (1979); Dickens et al., J. Chem. Ecol. 10: 583 (1984)]. In brief, microelectrodes used for recordings were constructed from 50.8 μm diameter tungsten wire electrolytically sharpened to a tip of 1-2 μm. The recording electrode was positioned under optical control (150-200 X) with a Leitz high-power micromanipulator near either the base of one of the three sensory bands encircling the club, or the base of an individual sensillum just distal to each sensory band region. The ground electrode was inserted in either the rostrum or distal end of the scape. Action potentials were amplified and conditioned by a Grass P-15 preamplifier and Tektronix 5A22N amplifier prior to visualization on a Tektronix 5223 digitizing oscilloscope. The signal then passed through a Teac R51-D data recorder for recording on cassette tapes prior to visualization on a Tektronix 5111 analog oscilloscope. Data were photographed from the analog oscilloscope with a Tektronix C-5C oscilloscope camera. Trains of action potentials were counted visually.
Upon obtaining a single cell preparation, odorous stimuli were presented every 3 min. […] The first two stimuli tested were volatiles emanating from 1 μg of grandlure, followed by volatiles emanating from a crushed cotton square. These two stimuli served to determine whether the cell was activated by the attractive pheromone of the boll weevil and/or volatiles emanating from its food source.

[2] = tested on: Boll Weevils; experiment: Competitive field test with released weevils, triangular trap array; format: in vivo, Anthonomus grandis
Method: Two series of field tests were performed involving released boll weevils, in which grandlure was placed in competition with grandlure + the synergist. In the first series of experiments, a triangular array of traps was used. One trap was placed at each corner of a 20 m equilateral triangle (total of three traps). The three treatments released in this triangular array of traps were: 1) grandlure 3 mg; 2) grandlure 3 mg+synergist 100 mg; and 3) synergist 100 mg. The three synergists tested in these experiments were: trans-2-hexen-1-ol, 1-hexanol, and cis-3-hexen-1-ol. Cigarette filters were used to release the experimental odorants. One hundred insets (50 males and 50 females) were released along a line 20 m from each side of the triangle (300 insects total) at ca. 1000 hrs prior to baiting of the traps at 1200 hrs. Traps were check and insects were removed at 1400 hrs, 1600 hrs, and 1800 hrs, the times at which the test was terminated.

[3] = tested on: Boll Weevils; experiment: Competitive field test with released weevils, four trap array; format: in vivo, Anthonomus grandis
Text: The second series of experiments involved an array of four traps. […] The two treatments being tested simultaneously in this competitive arrangement were placed alternately in the traps, i.e., the two traps baited with the same treatment were located diagonally from each other. Odorants diluted in hexane were released from glass capillaries placed in small vials in a container in each trap. […] Traps were then immediately baited. In each test, traps were checked and insects were removed at 1530 hrs and 1700 hrs on the day of release, and before 0900 hrs the next day (the time at which the test was terminated) in order to remove those insects which might have responded prior to darkness on the day of release.

[4] = tested on: Boll Weevils; experiment: Competitive field tests in Mississippi cotton fields, 4-week test period; format: in vivo, Anthonomus grandis; conditions: 10 mg and 100 mg, P<0.01, paired t-test
Method: Three cotton fields were used in this study to determine the effectiveness of trans-2-hexen-1-ol in synergizing grandlure in a practical situation. The experimental design consisted of placing four traps at the corners of a 20-m square within a cotton field of ca. 1 acre. Four additional traps were placed a few meters outside the cotton field, located near imaginary diagonal lines extending through the corners of the square within the field. Each trap contained a cigarette filter with 1 mg of grandlure. Cigarette filters containing trans-2-hexen-1-ol were placed alternately in the traps. The result resembled an “X” array of traps placed across each field with each arm of the “X” consisting of four traps, two within and two outside of the field. Traps within one arm contained grandlure 1 mg alone; those within the other arm were baited with grandlure 1 mg+trans-2-hexen-1-ol at a particular dosage. Only one dosage of the synergist occurred in each field. Dosages of trans-2-hexen-1-ol tested were: 1 mg, 10 mg, and 100 mg. Traps were freshly baited each week and checked daily at 1500 hrs for 3 days and at the end of the week.

[5] = tested on: Over-Wintered Boll Weevils; experiment: Competitive field test with over-wintered boll weevils, 3 weeks; format: in vivo, Anthonomus grandis; conditions: trans-2-hexen-1-ol 10 mg changed weekly, grandlure Hercon wafer 2.5 mg kept 3 wk
Method: The efficacy of the synergist in enhancing response of over-wintered boll weevils to grandlure was evaluated during the first 3 wks of May 1988, prior to the planting of cotton. In this experiment, the synergist trans-2-hexen-1-ol at 10 mg was released from a cigarette filter, in combination with a Hercon wafer formulation of grandlure at 2.5 mg. The grandlure formulation remained in the trap for the entire 3-wk period, while the cigarette filter containing the synergist was changed each week. During both the first and second weeks, trap captures increased for both the pheromone alone and for the pheromone+the synergist, presumably reflecting increasing numbers of boll weevils emerging from over-wintering sites (Table VII). However, while trap captures continued to increase for the pheromone+synergist during the third week, the number of boll weevils captured by the pheromone alone declined.

[6] = tested on: Arizona boll weevils; experiment: Arizona initial field experiment, 24 traps in a straight line, four treatments; format: in vivo, Anthonomus grandis; conditions: 1, 10, 100 mg with grandlure 1 mg
Method: Since boll weevils in this region differ genetically from those in the southeastern United States [Burke, Texas Agric. Exp. Sta. Tech. Rep., 152 pp. (1968)], these tests were performed to determine if green leaf volatiles would also enhance capture of Arizona boll weevils in traps baited with the aggregation pheromone.
In the initial field experiment, 24 traps were placed 30 m apart in a straight line along a road near Phoenix and were baited with four different treatments: 1) grandlure 1 mg; 2) grandlure 1 mg+trans-2-hexen-1-ol 1 mg; 3) grandlure 1 mg+trans-2-hexen-1-ol 10 mg; 4) grandlure 1 mg+trans-2-hexen-1-ol 100 mg. All compounds were released from cigarette filters after mixing in a solution to retard their rate of release, as previously described [McKibben et al., supra]. Treatments were arranged in six blocks with the four treatments randomized within each block. Traps were checked the next day.

[7] = tested on: Arizona boll weevils; experiment: Arizona third field experiment, traps around 20 cotton fields; format: in vivo, Anthonomus grandis; conditions: grandlure 5 mg + trans-2-hexen-1-ol 10 mg
Method: In a third field experiment, 20 cotton fields were selected. Three traps were placed at least 100 m apart along the edge of each field (60 traps total). The three traps were baited with one of the following treatments: 1) a 10-mg grandlure “Hercon” wafer; 2) 5 mg of grandlure in the same “Hercon” formulation; 3) the 5-mg grandlure
formulation+10 mg of trans-2-hexen-1-ol. The traps were checked daily and weevils were removed for the next 2 days.

[8] = volatiles emanating from 1 μg of odorant, cell responsive to crushed cotton square

For `CCC/C=C/CO` [trans-2-hexen-1-ol], the “response of cells activated by volatiles from the crushed cotton square” value ([1]; single olfactory cells) was “activated”, the “Response in impulses/initial 500 msec, Cell #1” value [1, 8] was 83 impulses/initial 500 msec and the “Response in impulses/initial 500 msec, Cell #2” value [1, 8] was 67 impulses/initial 500 msec. For the same compound, the “Response in impulses/initial 500 msec, Cell #3” value [1, 8] was 50 impulses/initial 500 msec, the “Response in impulses/initial 500 msec, Cell #4” value [1, 8] was 33 impulses/initial 500 msec and the “% Total” value ([2]; grandlure 3 mg vs trans-2-hexen-1-ol 100 mg vs both) was 5.9%. The “Mean Trap Capture” value ([2]; grandlure 3 mg vs trans-2-hexen-1-ol 100 mg vs both, three replicates) was 1.3 A, the “activity alone in competition with the other treatments” value ([2]; triangular array, 100 mg alone) was “relatively inactive” and the “attraction of grandlure on addition of the compound, relative to grandlure alone” value ([2]; triangular array, grandlure 3 mg, synergist 100 mg) was “significantly increased”. The “trap capture in combination with grandlure (0.8 mg) in competition with grandlure (0.8 mg) alone” value ([3]; 0.1 mg, P<0.10, paired t-test) was “increased trap capture”, the “synergism with grandlure (0.8 mg) in competition with grandlure (0.8 mg) alone” value ([3]; 1.0 mg of the compound) was “even more apparent” and the “effectiveness in combination with grandlure (0.8 mg) vs the combination with 1-hexanol” value ([3]; each presented with grandlure 0.8 mg in a competitive experiment) was “more effective”. For the same compound, the “weevils captured in combination with grandlure 1 mg vs grandlure alone at 1 mg” value [4] was “captured more weevils of both sexes”, the “effect of the synergist on effectiveness of the pheromone with time” value [5] was “extend the effectiveness of the pheromone” and the “effect of addition on trap capture over grandlure alone” value [6] was “enhanced trap capture”. For the same compound, the “effect of addition to grandlure on attractiveness over the 10-mg grandlure treatment” value [7] was “enhanced its attractiveness”.
